Data from the supplement of paper PMC10627819.

Experiments:
Assay in all cases: Bliss interaction score (quartile over a dose matrix) (fitness difference); higher = more antagonism (negative = synergy)
[1] = test system: B. subtilis 168
In short: (§1)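 Fitness was OD595 at entry into stationary phase divided by the plate's robust no-drug mean and capped at 1; single-drug fitness was inferred from combination data. The Bliss score is observed minus expected (product) fitness, summarised by quartiles over technical, biological and donor/recipient replicates.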

[2] = test system: S. aureus DSM 20231
In short: as §1

[3] = test system: S. aureus Newman
In short: as §1

[4] = test system: S. pneumoniae D39V
In short: as §1
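Further: first quartile when negative (synergy) and third quartile when positive (antagonism).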

| SMILES | Bliss interaction score [1] | Bliss interaction score [2] | Bliss interaction score [3] | Bliss interaction score [4] | Bliss interaction score ([1]; main component drawn) | Bliss interaction score ([2]; main component drawn) | Bliss interaction score ([3]; main component drawn) | Bliss interaction score ([4]; main component drawn) |
| --- | --- | --- | --- | --- | --- | --- | --- | --- |
| CN[C@H](CC(C)C)C(=O)N[C@H]1C(=O)N[C@@H](CC(N)=O)C(=O)N[C@H]2C(=O)N[C@H]3C(=O)N[C@H](C(=O)N[C@H](C(=O)O)c4cc(O)cc(O)c4-c4cc3ccc4O)[C@H](O[C@H]3C[C@](C)(N)[C@@H](O)[C@H](C)O3)c3ccc(c(Cl)c3)Oc3cc2cc(c3O[C@@H]2O[C@H](CO)[C@@H](O)[C@H](O)[C@H]2O[C@H]2C[C@](C)(NCc3ccc(-c4ccc(Cl)cc4)cc3)[C@@H](O)[C@H](C)O2)Oc2ccc(cc2Cl)[C@H]1O [Oritavancin] + Cc1cc(NS(=O)(=O)c2ccc(N)cc2)no1 [Sulfamethoxazol] | -0.0377 | -0.0575 | 0.0801 | -0.0491 | – | – | – | – |
| CC[C@H]1OC(=O)[C@H](C)[C@@H](O[C@H]2C[C@@](C)(OC)[C@@H](O)[C@H](C)O2)[C@H](C)[C@@H](O[C@@H]2O[C@H](C)C[C@H](N(C)C)[C@H]2O)[C@](C)(O)C[C@@H](C)C(=O)[C@H](C)[C@@H](O)[C@]1(C)O [Erythromycin] + CC(C1CCC(C(O1)OC2C(CC(C(C2O)OC3C(C(C(CO3)(C)O)NC)O)N)N)N)NC [Gentamicin] | – | – | – | – | 0.118 | 0.0847 | 0.0427 | 0.0656 |
| CC[C@H]1OC(=O)[C@H](C)[C@@H](O[C@H]2C[C@@](C)(OC)[C@@H](O)[C@H](C)O2)[C@H](C)[C@@H](O[C@@H]2O[C@H](C)C[C@H](N(C)C)[C@H]2O)[C@](C)(O)C[C@@H](C)C(=O)[C@H](C)[C@@H](O)[C@]1(C)O [Erythromycin] + CC[C@H]1OC(=O)[C@H](C)C(=O)[C@H](C)[C@@H](O[C@@H]2O[C@H](C)C[C@H](N(C)C)[C@H]2O)[C@](C)(OC)C[C@@H](C)C(=O)[C@H](C)[C@H]2N(CCCCn3cnc(-c4cccnc4)c3)C(=O)O[C@]12C [Telithromycin] | -0.0361 | -0.0237 | -0.0283 | 0.0262 | – | – | – | – |
| CO[C@H]1/C=C/O[C@@]2(C)Oc3c(C)c(O)c4c(O)c(c(/C=N/N5CCN(C)CC5)c(O)c4c3C2=O)NC(=O)/C(C)=C\C=C\[C@H](C)[C@H](O)[C@@H](C)[C@@H](O)[C@@H](C)[C@H](OC(C)=O)[C@@H]1C [Rifampicin] + CC[C@H]1OC(=O)[C@H](C)C(=O)[C@H](C)[C@@H](O[C@@H]2O[C@H](C)C[C@H](N(C)C)[C@H]2O)[C@](C)(OC)C[C@@H](C)C(=O)[C@H](C)[C@H]2N(CCCCn3cnc(-c4cccnc4)c3)C(=O)O[C@]12C [Telithromycin] | 0.0808 | 0.0559 | 0.0171 | -0.157 | – | – | – | – |
| CC[C@H]1OC(=O)[C@H](C)[C@@H](O[C@H]2C[C@@](C)(OC)[C@@H](O)[C@H](C)O2)[C@H](C)[C@@H](O[C@@H]2O[C@H](C)C[C@H](N(C)C)[C@H]2O)[C@](C)(O)C[C@@H](C)C(=O)[C@H](C)[C@@H](O)[C@]1(C)O [Erythromycin] + CCC(C)C1C(=O)NC(=C)C(=O)NC(C(=O)NC(CSCC(C(=O)N1)NC(=O)/C(=C/C)/NC(=O)C(C(C)CC)N)C(=O)NC2C(SCC(NC(=O)CNC(=O)C3CCCN3C2=O)C(=O)NC(CCCCN)C(=O)NC4C(SCC(NC(=O)CNC(=O)C(NC(=O)C(NC(=O)C(NC(=O)CNC4=O)C)CC(C)C)CCSC)C(=O)NC(CC(=O)N)C(=O)NC(CCSC)C(=O)NC(CCCCN)C(=O)NC5C(SCC6C(=O)NC(C(=O)NC(CSC(C(C(=O)N6)NC(=O)C(NC5=O)C)C)C(=O)NC(CO)C(=O)NC(C(C)CC)C(=O)NC(CC7=CN=CN7)C(=O)NC(C(C)C)C(=O)NC(=C)C(=O)NC(CCCCN)C(=O)O)CC8=CN=CN8)C)C)C)CC(C)C [Nisin] | – | – | – | – | 0.0295 | -0.029 | -0.028 | -0.0423 |
| CO[C@@H]1[C@@H](OC(N)=O)[C@@H](O)[C@H](Oc2ccc3c(O)c(NC(=O)c4ccc(O)c(CC=C(C)C)c4)c(=O)oc3c2C)OC1(C)C [Novobiocin] + Cn1nnc(-c2ccc(-c3ccc(N4C[C@H](CO)OC4=O)cc3F)cn2)n1 [Tedizolid] | 0.0533 | -0.0789 | -0.0571 | -0.131 | – | – | – | – |
| CO[C@@]12[C@H](COC(N)=O)C3=C(C(=O)C(C)=C(N)C3=O)N1C[C@@H]1N[C@@H]12 [MitomycinC] + O=C1CN(/N=C/c2ccc([N+](=O)[O-])o2)C(=O)N1 [Nitrofurantoin] | -0.0788 | -0.0298 | -0.0345 | -0.145 | – | – | – | – |
| CC[C@H]1OC(=O)[C@H](C)[C@@H](O[C@H]2C[C@@](C)(OC)[C@@H](O)[C@H](C)O2)[C@H](C)[C@@H](O[C@@H]2O[C@H](C)C[C@H](N(C)C)[C@H]2O)[C@](C)(O)C[C@@H](C)C(=O)[C@H](C)[C@@H](O)[C@]1(C)O [Erythromycin] + CN[C@H](CC(C)C)C(=O)N[C@H]1C(=O)N[C@@H](CC(N)=O)C(=O)N[C@H]2C(=O)N[C@H]3C(=O)N[C@H](C(=O)N[C@H](C(=O)O)c4cc(O)cc(O)c4-c4cc3ccc4O)[C@H](O[C@H]3C[C@](C)(N)[C@@H](O)[C@H](C)O3)c3ccc(c(Cl)c3)Oc3cc2cc(c3O[C@@H]2O[C@H](CO)[C@@H](O)[C@H](O)[C@H]2O[C@H]2C[C@](C)(NCc3ccc(-c4ccc(Cl)cc4)cc3)[C@@H](O)[C@H](C)O2)Oc2ccc(cc2Cl)[C@H]1O [Oritavancin] | 0.0299 | -0.023 | 0.0605 | 0.046 | – | – | – | – |
